Measurements published in ChEMBL document CHEMBL4483862, “Open-source discovery of chemical leads for next-generation chemoprotective antimalarials” (2018).

Test system: Plasmodium berghei
Experiment: Luciferase/luciferin-expressing antifolate-resistant parasites were used to infect a culture of HepG2 cells that were pre-incubated with compounds. Infected hepatocytes emit light due to the luciferase reaction. Assay results are presented as the percent inhibition of light emission compared to control. […]
Format: functional
Conditions: sporozoite; for IC90: read-out: LUCIFERASE INFECTION ASSAY - IC90
[1] = PBLUC_HILL_SLOPE 15.5, PBLUC_R_SQUARED 0.469, read-out: LUCIFERASE INFECTION ASSAY - IC50

SMILES: CC(C)c1ccc(CN2CCC2(C)C(=O)Nc2cnc3ccccc3c2)cc1 (configuration not stated)
- IC50 (PBLUC_HILL_SLOPE 15.4, PBLUC_R_SQUARED 0.671, read-out: LUCIFERASE INFECTION ASSAY - IC50): 3.29 µM
- IC90: 3.79 µM

SMILES: Cn1nc(C(F)(F)F)cc1-c1ccc(NC(=O)Nc2cccc(C(F)(F)F)c2)s1
- IC50 (PBLUC_HILL_SLOPE 15.6, PBLUC_R_SQUARED 0.0592, read-out: LUCIFERASE INFECTION ASSAY - IC50): 7.44 µM
- IC90: > 7.6 µM

SMILES: CC(C)C(=O)N1CCN(c2nc(CSc3ccccc3)nc3sc4c(c23)CCCC4)CC1
- IC50 (PBLUC_HILL_SLOPE 15.3, PBLUC_R_SQUARED 0.212, read-out: LUCIFERASE INFECTION ASSAY - IC50): 8.67 µM
- IC90: > 10 µM

SMILES: Clc1ccc(Sc2ncnc3ccsc23)cc1
- IC50 (PBLUC_HILL_SLOPE 15.3, PBLUC_R_SQUARED 0.133, read-out: LUCIFERASE INFECTION ASSAY - IC50): 8.63 µM
- IC90: 9.97 µM

SMILES: CC1=C(C(=O)OC2CCCCC2)C(c2ccccc2Br)CC(=O)N1 (configuration not stated)
- IC50 (PBLUC_HILL_SLOPE 15.2, PBLUC_R_SQUARED 0.697, read-out: LUCIFERASE INFECTION ASSAY - IC50): 7.66 µM
- IC90: > 8.41 µM

SMILES: OC(COc1cccc(C(F)(F)F)c1)CN1CCN(c2nc(-c3ccccc3)ns2)CC1 (configuration not stated)
- IC50 (PBLUC_HILL_SLOPE 15.4, PBLUC_R_SQUARED 0.391, read-out: LUCIFERASE INFECTION ASSAY - IC50): 6.73 µM
- IC90: > 7.1 µM

SMILES: CCC(NCC(O)COc1ccccc1C(C)C)c1ccc(Br)cc1 (configuration not stated)
- IC50 (PBLUC_HILL_SLOPE 15.5, PBLUC_R_SQUARED 0.67, read-out: LUCIFERASE INFECTION ASSAY - IC50): 9.4 µM
- IC90: > 10 µM

SMILES: O=C(/C=C/c1ccccc1[N+](=O)[O-])OCc1nc2ccccc2s1
- IC50 (PBLUC_HILL_SLOPE 15.4, PBLUC_R_SQUARED 0.138, read-out: LUCIFERASE INFECTION ASSAY - IC50): > 10 µM
- IC90: > 10 µM

SMILES: CN(C)c1cccc(-c2cnc3cnc(-c4cccc(C(N)=O)c4)cn23)c1
- IC50 (PBLUC_HILL_SLOPE 15.5, PBLUC_R_SQUARED 0.533, read-out: LUCIFERASE INFECTION ASSAY - IC50): 8.74 µM
- IC90: > 9.23 µM

SMILES: NC(c1csc(NC(=O)Nc2ccccc2-c2ccccc2)n1)C1CCCCC1 (configuration not stated)
- IC50 (PBLUC_HILL_SLOPE 15.5, PBLUC_R_SQUARED 0.0255, read-out: LUCIFERASE INFECTION ASSAY - IC50): 7.57 µM
- IC90: > 8.12 µM

SMILES: O=C1CN(CC(=O)N2N=C(c3ccc4ccccc4c3)CC2c2ccccc2)c2ccccc2N1 (configuration not stated)
- IC50 (PBLUC_HILL_SLOPE 15.5, PBLUC_R_SQUARED 0.336, read-out: LUCIFERASE INFECTION ASSAY - IC50): 9.53 µM
- IC90: > 10 µM

SMILES: O=C(Cc1ccc(-c2ccccc2)cc1)NCc1cn2ccccc2n1
- IC50 (PBLUC_HILL_SLOPE 15.5, PBLUC_R_SQUARED 0.301, read-out: LUCIFERASE INFECTION ASSAY - IC50): 8.96 µM
- IC90: > 10 µM

SMILES: COc1ccc(-c2cnc3ccc(-c4cccc(C(F)(F)F)c4)nn23)cc1OC
- IC50 (PBLUC_HILL_SLOPE 15.4, PBLUC_R_SQUARED 0.158, read-out: LUCIFERASE INFECTION ASSAY - IC50): 8.61 µM
- IC90: 9.93 µM

SMILES: CN(C)CCCOc1ccc(-c2nnc3ccc(-c4cccc(Oc5ccccc5)c4)cn23)cc1
- IC50 (PBLUC_HILL_SLOPE 15.3, PBLUC_R_SQUARED 0.363, read-out: LUCIFERASE INFECTION ASSAY - IC50): 9.36 µM
- IC90: > 10 µM

SMILES: COc1ccc(C(=O)Nc2ccccc2-c2nc3ccccc3[nH]2)cc1S(=O)(=O)N1CCCC1
- IC50 (PBLUC_HILL_SLOPE 15.4, PBLUC_R_SQUARED 0.501, read-out: LUCIFERASE INFECTION ASSAY - IC50): 8.92 µM
- IC90: > 10 µM

SMILES: c1ccc(-c2cc3c(N4CCC(c5ncc[nH]5)CC4)ncnc3s2)cc1
- IC50 (PBLUC_HILL_SLOPE 15.6, PBLUC_R_SQUARED 0.358, read-out: LUCIFERASE INFECTION ASSAY - IC50): 3.43 µM
- IC90: 3.94 µM

SMILES: COc1ccc(C(N)c2csc(NC(=O)Nc3cccc(C#N)c3)n2)cc1 (configuration not stated)
- IC50 (PBLUC_HILL_SLOPE 15.3, PBLUC_R_SQUARED 0.483, read-out: LUCIFERASE INFECTION ASSAY - IC50): 2.97 µM
- IC90: 3.43 µM

SMILES: CCNC(=O)c1nn(Cc2ccccc2)c2c1CC(NCc1ccc(Cl)s1)CC2 (configuration not stated)
- IC50 (PBLUC_HILL_SLOPE 15.3, PBLUC_R_SQUARED 0.172, read-out: LUCIFERASE INFECTION ASSAY - IC50): 7.58 µM
- IC90: > 7.69 µM

SMILES: COc1ccccc1-n1c(C)cc(/C=C(\C#N)c2nnc3n2CCCCC3)c1C
- IC50 (PBLUC_HILL_SLOPE 15.5, PBLUC_R_SQUARED 0.0701, read-out: LUCIFERASE INFECTION ASSAY - IC50): 9.71 µM
- IC90: > 10 µM

SMILES: CCc1ccc(CN(Cc2cccnc2)C(=O)c2ccc3ccccc3n2)cc1
- IC50 (PBLUC_HILL_SLOPE 15.3, PBLUC_R_SQUARED 0.276, read-out: LUCIFERASE INFECTION ASSAY - IC50): 3.69 µM
- IC90: 4.26 µM

SMILES: CC(C)c1ccc(-c2csc(NC(=O)c3cccc(NC(=O)C4CCCO4)c3)n2)cc1 (configuration not stated)
- IC50 (PBLUC_HILL_SLOPE 15.4, PBLUC_R_SQUARED 0.296, read-out: LUCIFERASE INFECTION ASSAY - IC50): 9.87 µM
- IC90: > 10 µM

SMILES: COc1cc(-c2ccc3ncc(-c4cccc(OC(F)(F)F)c4)n3n2)cc(OC)c1OC
- IC50 (PBLUC_HILL_SLOPE 15.5, PBLUC_R_SQUARED 0.302, read-out: LUCIFERASE INFECTION ASSAY - IC50): 3.23 µM
- IC90: 3.72 µM

SMILES: CC(C)(C)C(=O)c1sc2c(c1N)c(=O)[nH]c(=O)n2C1CCCCC1
- IC50 (PBLUC_HILL_SLOPE 15.3, PBLUC_R_SQUARED 0.0878, read-out: LUCIFERASE INFECTION ASSAY - IC50): 3.01 µM
- IC90: 3.47 µM

SMILES: COc1ccc(CCC2CCN(C(=O)c3cc(S(N)(=O)=O)c(Cl)cc3Cl)CC2)cc1
- IC50 (PBLUC_HILL_SLOPE 15.3, 12.1, PBLUC_R_SQUARED 0.180, 0.0239, read-out: LUCIFERASE INFECTION ASSAY - IC50): 9.53 µM
- IC90: > 10 µM

SMILES: Cc1ccc(C(=O)OCCOc2ccccc2)cc1NC(=O)c1ccco1
- IC50 (PBLUC_HILL_SLOPE 15.6, PBLUC_R_SQUARED 0.272, read-out: LUCIFERASE INFECTION ASSAY - IC50): 1.06 µM
- IC90: 1.22 µM

SMILES: CCC(C(=O)Nc1nc2ccccn2c1C(=O)NC1CCCCC1)c1ccccc1 (configuration not stated)
- IC50 (PBLUC_HILL_SLOPE 15.5, PBLUC_R_SQUARED 0.112, read-out: LUCIFERASE INFECTION ASSAY - IC50): 7.66 µM
- IC90: > 8.16 µM

SMILES: CCN(CC(=O)Nc1nnc(-c2ccccc2)o1)Cc1ccc(Br)s1
- IC50 [1]: 3.46 µM
- IC90: 3.99 µM

SMILES: CN(Cc1ccc(Cl)cc1Cl)C(=O)NCc1ccc(S(=O)(=O)N2CCCCC2)cc1
- IC50 (PBLUC_HILL_SLOPE 15.3, PBLUC_R_SQUARED 0.472, read-out: LUCIFERASE INFECTION ASSAY - IC50): 9.36 µM
- IC90: > 10 µM

SMILES: CN(C)CCCOc1ccc(-c2cn3c(-c4cccc(OC(F)(F)F)c4)cnc3cn2)cn1
- IC50 (PBLUC_HILL_SLOPE 15.4, PBLUC_R_SQUARED 0.0337, read-out: LUCIFERASE INFECTION ASSAY - IC50): 6.95 µM
- IC90: > 7.21 µM

SMILES: Fc1ccc(CNc2ccc(-c3nc4ccccc4[nH]3)cc2)cc1
- IC50 (PBLUC_HILL_SLOPE 15.3, PBLUC_R_SQUARED 0.322, read-out: LUCIFERASE INFECTION ASSAY - IC50): 9.03 µM
- IC90: > 10.4 µM

SMILES: O=C(NC1CCN(C(=O)c2ccoc2)CC1)c1cccc2c3c([nH]c12)CCCCC3
- IC50 (PBLUC_HILL_SLOPE 15.4, PBLUC_R_SQUARED 0.491, read-out: LUCIFERASE INFECTION ASSAY - IC50): 9.35 µM
- IC90: > 10 µM

SMILES: CCOC(=O)c1c[nH]c2c(C)cc(Cl)cc2c1=O
- IC50 (PBLUC_HILL_SLOPE 15.3, PBLUC_R_SQUARED 0.364, read-out: LUCIFERASE INFECTION ASSAY - IC50): 11.2 µM
- IC90: > 12.4 µM

SMILES: OCCNc1nc(-c2cccnc2)nc2scc(-c3ccccc3)c12
- IC50 (PBLUC_HILL_SLOPE 15.6, PBLUC_R_SQUARED 0.267, read-out: LUCIFERASE INFECTION ASSAY - IC50): 9.57 µM
- IC90: > 10 µM

SMILES: COCOc1ccc(-c2cc(-c3ccc(C(N)=O)cc3)cnc2N)cc1
- IC50 (PBLUC_HILL_SLOPE 15.5, PBLUC_R_SQUARED 0.616, read-out: LUCIFERASE INFECTION ASSAY - IC50): 2.98 µM
- IC90: 3.43 µM

SMILES: CCN(Cc1ccccc1)S(=O)(=O)c1cc(C(=O)N2CCc3ccccc3C2)ccc1OC
- IC50 (PBLUC_HILL_SLOPE 15.3, PBLUC_R_SQUARED 0.425, read-out: LUCIFERASE INFECTION ASSAY - IC50): 9.68 µM
- IC90: > 10 µM

SMILES: O=c1cc(C(F)(F)F)[nH]c2cc(C(F)(F)F)ccc12
- IC50 (PBLUC_HILL_SLOPE 15.4, PBLUC_R_SQUARED 0.673, read-out: LUCIFERASE INFECTION ASSAY - IC50): 3.68 µM
- IC90: 4.25 µM

SMILES: CS(=O)(=O)Nc1ccc(-c2csc(NC(=O)c3ccc(CN4CCCCC4)cc3)n2)cc1
- IC50 (PBLUC_HILL_SLOPE 15.3, PBLUC_R_SQUARED 0.202, read-out: LUCIFERASE INFECTION ASSAY - IC50): 9.15 µM
- IC90: > 10 µM

SMILES: O=C(CNC(=O)c1ccc(Oc2ccccc2)cc1)Nc1nccs1
- IC50 [1]: 9.34 µM
- IC90: > 10 µM

SMILES: Cc1ccc(CCCNC(=O)c2cc(C3CC3)n[nH]2)c(C)c1
- IC50 (PBLUC_HILL_SLOPE 15.6, PBLUC_R_SQUARED 0.22, read-out: LUCIFERASE INFECTION ASSAY - IC50): 3.65 µM
- IC90: 4.2 µM

SMILES: Cc1ccc(C(=O)Nc2nc3ccccn3c2C(=O)NC(C)C)cc1
- IC50 (PBLUC_HILL_SLOPE 15.2, PBLUC_R_SQUARED 0.478, read-out: LUCIFERASE INFECTION ASSAY - IC50): 8.52 µM
- IC90: > 9.81 µM

SMILES: Nc1ncc(-c2ccc(C(=O)NC3CC3)cc2)cc1-c1ccc(F)c(Cl)c1
- IC50 (PBLUC_HILL_SLOPE 15.4, PBLUC_R_SQUARED 0.346, read-out: LUCIFERASE INFECTION ASSAY - IC50): 7.27 µM
- IC90: 8.39 µM
